What was measured:
Type in all cases: in vivo
Corn [1] = experiment: Pre-emergence treatment, phytotoxicity to corn; details: 500 g/ha, 4 weeks after spraying, scale 0 to 10 (0: no effects, 10: complete death)
Description: (§1) A rectangular plastic pot having a surface area of 300 cm^2 was filled with sandy loam soil and mixed bed soil which were mixed at a ratio of 1:1, and then, barnyardrass (Echinochloa crusgalli), large crabgrass (Digitaria sanguinalis), blackgrass (Alopecurus myosuroides), and annual bluegrass (Poa annua), which are grass weeds, were seeded thereto. In a pot that was prepared as described above, seeds of corn, soybean, cotton, wheat, and rice were seeded. The pots were irrigated, and one day after, chemicals were sprayed thereto. The spraying was performed by using a track sprayer (R&D Sprayer, USA) equipped with a Teejet 8002 (Spraying Systems Co., USA) nozzle, and a spraying amount was adjusted at 300 L/ha. A spraying solution was prepared by dissolving test materials or references in acetone and adding the same amount of 0.2%(v/v) tween 20 aqueous solution thereto. Application rates were 500, 250, 125, and 62.5 g/ha. The pots were placed in a greenhouse in which during day, the temperature was maintained at a temperature of 25 to 30° C., and during night, the temperature was maintained at a temperature of 15 to 25° C., and the pots were periodically irrigated. Four weeks after the spraying the test materials or References, effects and phytotoxicity of the respective weeds and crops were evaluated in a scale of 0 to 10 (0: no effects, 10: complete death), and results thereof are shown in Table 4 below.

Soybean [2] = experiment: Pre-emergence treatment, phytotoxicity to soybean; details: 500 g/ha, 4 weeks after spraying, scale 0 to 10 (0: no effects, 10: complete death)
Description: as §1

Cotton [3] = experiment: Pre-emergence treatment, phytotoxicity to cotton; details: 500 g/ha, 4 weeks after spraying, scale 0 to 10 (0: no effects, 10: complete death)
Description: as §1

Wheat [4] = experiment: Pre-emergence treatment, phytotoxicity to wheat; details: 500 g/ha, 4 weeks after spraying, scale 0 to 10 (0: no effects, 10: complete death)
Description: as §1

Rice [5] = experiment: Pre-emergence treatment, phytotoxicity to rice; details: 500 g/ha, 4 weeks after spraying, scale 0 to 10 (0: no effects, 10: complete death)
Description: as §1

Echinochloa crusgalli [6] = experiment: Pre-emergence treatment, herbicidal efficacy on barnyardgrass; details: 4 weeks after spraying
Description: as §1

Digitaria sanguinalis [7] = experiment: Pre-emergence treatment, herbicidal efficacy on large crabgrass; details: 4 weeks after spraying, scale 0 to 10
Description: as §1

Poa annua [8] = experiment: Pre-emergence treatment, herbicidal efficacy on annual bluegrass; details: 4 weeks after spraying, scale 0 to 10
Description: as §1

Alopecurus myosuroides [9] = experiment: Pre-emergence treatment, herbicidal efficacy on blackgrass; details: 4 weeks after spraying, scale 0 to 10
Description: as §1

Corn [10] = experiment: Post-emergence treatment, phytotoxicity to corn; details: post-emergence (about 3 leaf stage), 1,000 g/ha, 4 weeks after spraying, scale 0 to 10 (0: no effects, 10: complete death)
Description: as §1
(§2) Pots containing crops and weeds were prepared in the same manner as in Example 7, and then, in the second week in which crops and weeds entered into about 3 leaf stage, the test materials and the references were sprayed thereto in the same manner as described above. The rates were 1,000, 500, 250, and 125 g/ha. Four weeks after the spraying of the test materials or the references, herbicidal efficacy and phytotoxicity to the respective weeds and crops were evaluated in a scale of 0 to 10 (0: no effects, 10: complete death).

Soybean [11] = experiment: Post-emergence treatment, phytotoxicity to soybean; details: post-emergence (about 3 leaf stage), 1,000 g/ha, 4 weeks after spraying, scale 0 to 10 (0: no effects, 10: complete death)
Description: as §1, §2

Cotton [12] = experiment: Post-emergence treatment, phytotoxicity to cotton; details: post-emergence (about 3 leaf stage), 1,000 g/ha, 4 weeks after spraying, scale 0 to 10 (0: no effects, 10: complete death)
Description: as §1, §2

Wheat [13] = experiment: Post-emergence treatment, phytotoxicity to wheat; details: post-emergence (about 3 leaf stage), 1,000 g/ha, 4 weeks after spraying, scale 0 to 10 (0: no effects, 10: complete death)
Description: as §1, §2

Rice [14] = experiment: Post-emergence treatment, phytotoxicity to rice; details: post-emergence (about 3 leaf stage), 1,000 g/ha, 4 weeks after spraying, scale 0 to 10 (0: no effects, 10: complete death)
Description: as §1, §2

Echinochloa crusgalli [15] = experiment: Post-emergence treatment, herbicidal efficacy on barnyardgrass; details: 4 weeks after spraying, scale 0 to 10
Description: as §1, §2

Digitaria sanguinalis [16] = experiment: Post-emergence treatment, herbicidal efficacy on large crabgrass; details: 4 weeks after spraying, scale 0 to 10
Description: as §1, §2

Poa annua [17] = experiment: Post-emergence treatment, herbicidal efficacy on annual bluegrass; details: 4 weeks after spraying, scale 0 to 10
Description: as §1, §2

Alopecurus myosuroides [18] = experiment: Post-emergence treatment, herbicidal efficacy on blackgrass; details: 4 weeks after spraying, scale 0 to 10
Description: as §1, §2

[19] = 500 g/ha, scale 0 to 10 (0: no effects, 10: complete death)

Cc1ccc(C2=NOC(C)(COCc3c(F)cccc3F)C2)cc1 (stereo not drawn) [Reference G]
Phytotoxicity, Corn (Corn [1]): 0 | Phytotoxicity, Soybean (Soybean [2]): 0 | Phytotoxicity, Cotton (Cotton [3]): 0 | Phytotoxicity, Wheat (Wheat [4]): 0 | Phytotoxicity, Rice (Rice [5]): 0 | Herbicidal efficacy, Echinochloa crusgalli (Echinochloa crusgalli [6]; 62.5 g/ha, scale 0 to 10): 0 | Herbicidal efficacy, Echinochloa crusgalli (Echinochloa crusgalli [6]; 125 g/ha, scale 0 to 10): 3 | Herbicidal efficacy, Echinochloa crusgalli (Echinochloa crusgalli [6]; 250 g/ha, scale 0 to 10): 7 | Herbicidal efficacy, Echinochloa crusgalli (Echinochloa crusgalli [6]; [19]): 10 | Herbicidal efficacy, Digitaria sanguinalis (Digitaria sanguinalis [7]; 62.5 g/ha): 1 | Herbicidal efficacy, Digitaria sanguinalis (Digitaria sanguinalis [7]; 125 g/ha): 4 | Herbicidal efficacy, Digitaria sanguinalis (Digitaria sanguinalis [7]; 250 g/ha): 8 | Herbicidal efficacy, Digitaria sanguinalis (Digitaria sanguinalis [7]; 500 g/ha): 10 | Herbicidal efficacy, Poa annua (Poa annua [8]; 62.5 g/ha): 1 | Herbicidal efficacy, Poa annua (Poa annua [8]; 125 g/ha): 4 | Herbicidal efficacy, Poa annua (Poa annua [8]; 250 g/ha): 8 | Herbicidal efficacy, Poa annua (Poa annua [8]; 500 g/ha): 9 | Herbicidal efficacy, Alopecurus myosuroides (Alopecurus myosuroides [9]; 62.5 g/ha): 0 | Herbicidal efficacy, Alopecurus myosuroides (Alopecurus myosuroides [9]; 125 g/ha): 0 | Herbicidal efficacy, Alopecurus myosuroides (Alopecurus myosuroides [9]; 250 g/ha): 0 | Herbicidal efficacy, Alopecurus myosuroides (Alopecurus myosuroides [9]; 500 g/ha): 3 | Phytotoxicity, Corn (Corn [10]): 0 | Phytotoxicity, Soybean (Soybean [11]): 2 | Phytotoxicity, Cotton (Cotton [12]): 0 | Phytotoxicity, Wheat (Wheat [13]): 0 | Phytotoxicity, Rice (Rice [14]): 0 | Herbicidal efficacy, Echinochloa crusgalli (Echinochloa crusgalli [15]; post-emergence, 125 g/ha): 0 | Herbicidal efficacy, Echinochloa crusgalli (Echinochloa crusgalli [15]; post-emergence, 250 g/ha): 2 | Herbicidal efficacy, Echinochloa crusgalli (Echinochloa crusgalli [15]; post-emergence, 500 g/ha): 5 | Herbicidal efficacy, Echinochloa crusgalli (Echinochloa crusgalli [15]; post-emergence, 1,000 g/ha): 6 | Herbicidal efficacy, Digitaria sanguinalis (Digitaria sanguinalis [16]; post-emergence, 125 g/ha): 0 | Herbicidal efficacy, Digitaria sanguinalis (Digitaria sanguinalis [16]; post-emergence, 250 g/ha): 0 | Herbicidal efficacy, Digitaria sanguinalis (Digitaria sanguinalis [16]; post-emergence, 500 g/ha): 4 | Herbicidal efficacy, Digitaria sanguinalis (Digitaria sanguinalis [16]; post-emergence, 1,000 g/ha): 6 | Herbicidal efficacy, Poa annua (Poa annua [17]; post-emergence, 125 g/ha): 0 | Herbicidal efficacy, Poa annua (Poa annua [17]; post-emergence, 250 g/ha): 1 | Herbicidal efficacy, Poa annua (Poa annua [17]; post-emergence, 500 g/ha): 4 | Herbicidal efficacy, Poa annua (Poa annua [17]; post-emergence, 1,000 g/ha): 6 | Herbicidal efficacy, Alopecurus myosuroides (Alopecurus myosuroides [18]; post-emergence, 125 g/ha): 0 | Herbicidal efficacy, Alopecurus myosuroides (Alopecurus myosuroides [18]; post-emergence, 250 g/ha): 0 | Herbicidal efficacy, Alopecurus myosuroides (Alopecurus myosuroides [18]; post-emergence, 500 g/ha): 2 | Herbicidal efficacy, Alopecurus myosuroides (Alopecurus myosuroides [18]; post-emergence, 1,000 g/ha): 3

CC1(COCc2c(F)cccc2Cl)CC(c2ccccc2)=NO1 (stereo not drawn) [Reference H]
Phytotoxicity, Corn (Corn [1]): 2 | Phytotoxicity, Soybean (Soybean [2]): 0 | Phytotoxicity, Cotton (Cotton [3]): 0 | Phytotoxicity, Wheat (Wheat [4]): 0 | Phytotoxicity, Rice (Rice [5]): 0 | Herbicidal efficacy, Echinochloa crusgalli (Echinochloa crusgalli [6]; 62.5 g/ha, scale 0 to 10): 0 | Herbicidal efficacy, Echinochloa crusgalli (Echinochloa crusgalli [6]; 125 g/ha, scale 0 to 10): 0 | Herbicidal efficacy, Echinochloa crusgalli (Echinochloa crusgalli [6]; 250 g/ha, scale 0 to 10): 2 | Herbicidal efficacy, Echinochloa crusgalli (Echinochloa crusgalli [6]; [19]): 9 | Herbicidal efficacy, Digitaria sanguinalis (Digitaria sanguinalis [7]; 62.5 g/ha): 0 | Herbicidal efficacy, Digitaria sanguinalis (Digitaria sanguinalis [7]; 125 g/ha): 0 | Herbicidal efficacy, Digitaria sanguinalis (Digitaria sanguinalis [7]; 250 g/ha): 2 | Herbicidal efficacy, Digitaria sanguinalis (Digitaria sanguinalis [7]; 500 g/ha): 10 | Herbicidal efficacy, Poa annua (Poa annua [8]; 62.5 g/ha): 0 | Herbicidal efficacy, Poa annua (Poa annua [8]; 125 g/ha): 0 | Herbicidal efficacy, Poa annua (Poa annua [8]; 250 g/ha): 2 | Herbicidal efficacy, Poa annua (Poa annua [8]; 500 g/ha): 8 | Herbicidal efficacy, Alopecurus myosuroides (Alopecurus myosuroides [9]; 62.5 g/ha): 0 | Herbicidal efficacy, Alopecurus myosuroides (Alopecurus myosuroides [9]; 125 g/ha): 0 | Herbicidal efficacy, Alopecurus myosuroides (Alopecurus myosuroides [9]; 250 g/ha): 2 | Herbicidal efficacy, Alopecurus myosuroides (Alopecurus myosuroides [9]; 500 g/ha): 9 | Phytotoxicity, Corn (Corn [10]): 0 | Phytotoxicity, Soybean (Soybean [11]): 0 | Phytotoxicity, Cotton (Cotton [12]): 0 | Phytotoxicity, Wheat (Wheat [13]): 0 | Phytotoxicity, Rice (Rice [14]): 0 | Herbicidal efficacy, Echinochloa crusgalli (Echinochloa crusgalli [15]; post-emergence, 125 g/ha): 0 | Herbicidal efficacy, Echinochloa crusgalli (Echinochloa crusgalli [15]; post-emergence, 250 g/ha): 0 | Herbicidal efficacy, Echinochloa crusgalli (Echinochloa crusgalli [15]; post-emergence, 500 g/ha): 0 | Herbicidal efficacy, Echinochloa crusgalli (Echinochloa crusgalli [15]; post-emergence, 1,000 g/ha): 4 | Herbicidal efficacy, Digitaria sanguinalis (Digitaria sanguinalis [16]; post-emergence, 125 g/ha): 0 | Herbicidal efficacy, Digitaria sanguinalis (Digitaria sanguinalis [16]; post-emergence, 250 g/ha): 0 | Herbicidal efficacy, Digitaria sanguinalis (Digitaria sanguinalis [16]; post-emergence, 500 g/ha): 1 | Herbicidal efficacy, Digitaria sanguinalis (Digitaria sanguinalis [16]; post-emergence, 1,000 g/ha): 5 | Herbicidal efficacy, Poa annua (Poa annua [17]; post-emergence, 125 g/ha): 0 | Herbicidal efficacy, Poa annua (Poa annua [17]; post-emergence, 250 g/ha): 0 | Herbicidal efficacy, Poa annua (Poa annua [17]; post-emergence, 500 g/ha): 2 | Herbicidal efficacy, Poa annua (Poa annua [17]; post-emergence, 1,000 g/ha): 4 | Herbicidal efficacy, Alopecurus myosuroides (Alopecurus myosuroides [18]; post-emergence, 125 g/ha): 0 | Herbicidal efficacy, Alopecurus myosuroides (Alopecurus myosuroides [18]; post-emergence, 250 g/ha): 0 | Herbicidal efficacy, Alopecurus myosuroides (Alopecurus myosuroides [18]; post-emergence, 500 g/ha): 0 | Herbicidal efficacy, Alopecurus myosuroides (Alopecurus myosuroides [18]; post-emergence, 1,000 g/ha): 0

Reference: US9439432B2, “Phenylisoxazoline-based compound having herbicidal activity and use thereof” (MOGHU RESEARCH CENTER LTD, priority 2011, dated 2016)
